Patent US20250319139A1, “METHODS FOR TREATING NEUROINFLAMMATION” (University of Virginia Patent Foundation, priority 2021, published 2025)

Columns and labels:
C57BL/6J mice = experiment: Barnes maze test, old mice; assay type: in vivo, mouse; details: old mice with exercise and surgery; intraperitoneal valeric acid once a week vs normal saline
From the text: After one-week acclimation, old mice (18-month old male C57BL/6J mice) weighing 30-36 g were used in three studies. In the first experiment, old mice were randomly assigned to: 1) control group, 2) exercise group in which mice had 4-week exercise at 35-40% maximal capacity, 3) surgery group, and 4) Exe+Sur group in which mice had 4-week exercise at 35-40% maximal capacity before surgery. The animals were used for learning and memory tests starting 4 days after the surgery (n=12) or their brains were harvested for biochemical assays at 48 h after the surgery (n=10 or 12), for immunofluorescent staining at 48 h and 19 days after the surgery (n=6), and for Golgi staining at 19 days after the surgery (n=8). Blood and feces from mice of the 4 groups were harvested for SCFA measurement at 7 days after the surgery (n=7) and for 16S analyses at 3 and 7 days after the surgery (n=8) or at the end of 4-week exercise protocol or at the corresponding time in the first 2 groups (n=16). Mice for tissue harvesting were different cohorts that were used for learning and memory tests. In second experiment, old mice were randomly assigned to: 1) Trans-Old Control+Sur group, and 2) Trans-Old Exe+Sur group. […] Learning and memory were evaluated from 4 days after surgery (n=10). […] The latency to enter the target box during each trial was recorded by an ANY-Maze video tracking system (SD Instruments).

[1] = system: newly generated brain cells; experiment: BrdU immunofluorescent staining, brain cell genesis; assay type: in vivo, mouse; details: young adult mice with exercise and surgery; intraperitoneal valeric acid
Protocol: Seven days after surgery, mice were given 7 consecutive intraperitoneal injections of 80 mg/kg 5′-bromo-2′-deoxyuridine (BrdU) at 12:00 once daily as previously described. Mice were sacrificed 5 days later for harvesting hippocampus. Hippocampus was fixed in 4% paraformaldehyde in 0.1 M phosphate-buffered saline at 4° C. for 24 h and embedded in paraffin. Five-micron thick coronal brain sections were cut sequentially from Bregma −2 to −4 mm. Antigen retrieval was performed by incubating sections with sodium citrate buffer containing 10 mM sodium citrate, 0.05% Tween 20 (pH 6.0) at 95-100° C. for 20 min. DNA denaturation was done by incubating with 1 N HCl on ice for 3 min, 2 N HCL at room temperature for 3 min, and at 37° C. for 6 min. Sections were blocked with 5% donkey serum in phosphate-buffered saline (PBS) containing 0.5% triton-X 100 for 2 h at room temperature. […] Images were acquired with a fluorescence microscope with a charge-coupled device camera (High Mag Olympus BX51) and a LSM710 confocal microscopy system (ZEISS). […] The number of all cells positively stained for an interested marker or the combination of two markers in the sub-granular zone of the dentate gyrus of each section was counted. The quantitative analyses were performed in a blinded manner.

CCCCC(=O)O [valeric acid]
performance in Barnes maze (C57BL/6J mice): impaired the performance
exercise attenuation of the decrease of newly generated brain cells [1]: this attenuation was blocked
